Experiments:
Assay type in all cases: functional
[1] = tested on: MDA-MB-468; test: Cytotoxicity against human MDA-MB-468 cells assessed as cell growth at 10 uM after 24 hrs by SRB assay; conditions: MDA-MB-468, 24 h, read-out: Activity
[2] = Cytotoxicity against human RXF393 cells assessed as cell growth at 10 uM after 24 hrs by SRB assay; conditions: RXF 393, 24 h, read-out: Activity
[3] = Cytotoxicity against human NCI-ADR-RES cells assessed as cell growth at 10 uM after 24 hrs by SRB assay; conditions: read-out: Activity
[4] = Cytotoxicity against human OVCAR3 cells assessed as cell growth at 10 uM after 24 hrs by SRB assay; conditions: OVCAR-3, 24 h, read-out: Activity
[5] = tested on: CCRF-CEM; test: Cytotoxicity against human CCRF-CEM cells assessed as cell growth at 10 uM after 24 hrs by SRB assay; conditions: read-out: Activity
[6] = tested on: A549; test: Cytotoxicity against human A549 cells assessed as cell growth at 10 uM after 24 hrs by SRB assay; conditions: A549, 24 h, read-out: Activity
[7] = tested on: EKVX; test: Cytotoxicity against human EKVX cells assessed as cell growth at 10 uM after 24 hrs by SRB assay; conditions: read-out: Activity
[8] = tested on: MCF7; test: Cytotoxicity against human MCF7 cells assessed as cell growth at 10 uM after 24 hrs by SRB assay; conditions: MCF7, 24 h, read-out: Activity
[9] = tested on: MDA-MB-231; test: Cytotoxicity against human MDA-MB-231 cells assessed as growth inhibition at 10 uM after 24 hrs by SRB assay; conditions: MDA-MB-231, 24 h, read-out: GI
[10] = Cytotoxicity against human UO31 cells assessed as growth inhibition at 10 uM after 24 hrs by SRB assay; conditions: UO-31, 24 h, read-out: GI
[11] = tested on: MDA-MB-231; test: Cytotoxicity against human MDA-MB-231 cells assessed as cell growth at 10 uM after 24 hrs by SRB assay; conditions: MDA-MB-231, 24 h, read-out: Activity
[12] = tested on: SN12C; test: Cytotoxicity against human SN12C cells assessed as cell growth at 10 uM after 24 hrs by SRB assay; conditions: read-out: Activity
[13] = tested on: M14; test: Cytotoxicity against human M14 cells assessed as cell growth at 10 uM after 24 hrs by SRB assay; conditions: M14, 24 h, read-out: Activity
[14] = tested on: SK-MEL-28; test: Cytotoxicity against human SK-MEL-28 cells assessed as cell growth at 10 uM after 24 hrs by SRB assay; conditions: SK-MEL-28, 24 h, read-out: Activity
[15] = Cytotoxicity against human COLO205 cells assessed as cell growth at 10 uM after 24 hrs by SRB assay; conditions: COLO 205, 24 h, read-out: Activity
[16] = tested on: SK-MEL-5; test: Cytotoxicity against human SK-MEL-5 cells assessed as growth inhibition at 10 uM after 24 hrs by SRB assay; conditions: SK-MEL-5, 24 h, read-out: GI
[17] = Cytotoxicity against human UO31 cells assessed as cell growth at 10 uM after 24 hrs by SRB assay; conditions: UO-31, 24 h, read-out: Activity
[18] = tested on: SK-MEL-2; test: Cytotoxicity against human SK-MEL-2 cells assessed as cell growth at 10 uM after 24 hrs by SRB assay; conditions: SK-MEL-2, 24 h, read-out: Activity
[19] = tested on: K562; test: Cytotoxicity against human K562 cells assessed as growth inhibition at 10 uM after 24 hrs by SRB assay; conditions: K562, 24 h, read-out: GI
[20] = Cytotoxicity against human DU145 cells assessed as cell growth at 10 uM after 24 hrs by SRB assay; conditions: DU-145, 24 h, read-out: Activity
[21] = tested on: T47D; test: Cytotoxicity against human T47D cells assessed as growth inhibition at 10 uM after 24 hrs by SRB assay; conditions: read-out: GI
[22] = Cytotoxicity against human NCI60 cells assessed as growth inhibition at 10 uM after 24 hrs by SRB assay; conditions: NCI60, 24 h
[23] = tested on: NCI-H226; test: Cytotoxicity against human NCI-H226 cells assessed as growth inhibition at 10 uM after 24 hrs by SRB assay; conditions: NCI-H226, 24 h, read-out: GI
[24] = tested on: NCI-H322M; test: Cytotoxicity against human NCI-H322M cells assessed as cell growth at 10 uM after 24 hrs by SRB assay; conditions: read-out: Activity
[25] = Cytotoxicity against human TK10 cells assessed as cell growth at 10 uM after 24 hrs by SRB assay; conditions: TK-10, 24 h, read-out: Activity
[26] = Cytotoxicity against human UACC257 cells assessed as cell growth at 10 uM after 24 hrs by SRB assay; conditions: UACC-257, 24 h, read-out: Activity
[27] = Cytotoxicity against human MOLT4 cells assessed as cell growth at 10 uM after 24 hrs by SRB assay; conditions: MOLT-4, 24 h, read-out: Activity
[28] = tested on: A498; test: Cytotoxicity against human A498 cells assessed as growth inhibition at 10 uM after 24 hrs by SRB assay; conditions: A498, 24 h, read-out: GI
[29] = Cytotoxicity against human HOP92 cells assessed as growth inhibition at 10 uM after 24 hrs by SRB assay; conditions: HOP-92, 24 h, read-out: GI
[30] = tested on: NCI-H522; test: Cytotoxicity against human NCI-H522 cells assessed as growth inhibition at 10 uM after 24 hrs by SRB assay; conditions: NCI-H522, 24 h, read-out: GI
[31] = Cytotoxicity against human RPMI8226 cells assessed as growth inhibition at 10 uM after 24 hrs by SRB assay; conditions: RPMI-8226, 24 h, read-out: GI
[32] = Cytotoxicity against human IGROV1 cells assessed as cell growth at 10^-5 M after 24 hrs by SRB assay; conditions: IGROV-1, 24 h, read-out: Activity
[33] = Cytotoxicity against human HCC2998 cells assessed as cell growth at 10^-8 M after 24 hrs by SRB assay; conditions: HCC 2998, 24 h, read-out: Activity
[34] = tested on: M14; test: Cytotoxicity against human M14 cells assessed as cell growth at 10^-4 M after 24 hrs by SRB assay; conditions: M14, 24 h, read-out: Activity
[35] = Cytotoxicity against human RPMI8226 cells assessed as cell growth at 10^-6 M after 24 hrs by SRB assay; conditions: RPMI-8226, 24 h, read-out: Activity
[36] = Cytotoxicity against human NCI-ADR-RES cells after 24 hrs by SRB assay
[37] = Cytotoxicity against human RXF393 cells assessed as cell growth at 10^-6 M after 24 hrs by SRB assay; conditions: RXF 393, 24 h, read-out: Activity
[38] = Cytotoxicity against human COLO205 cells assessed as cell growth at 10^-7 M after 24 hrs by SRB assay; conditions: COLO 205, 24 h, read-out: Activity
[39] = tested on: SK-MEL-2; test: Cytotoxicity against human SK-MEL-2 cells assessed as cell growth at 10^-4 M after 24 hrs by SRB assay; conditions: SK-MEL-2, 24 h, read-out: Activity

SMILES	growth at 10 µM [1] [%]	growth at 10 µM [2] [%]	growth at 10 µM [3] [%]	growth at 10 µM [4] [%]	growth at 10 µM [5] [%]	growth at 10 µM [6] [%]	growth at 10 µM [7] [%]	growth at 10 µM [8] [%]	growth at 10 µM [11] [%]	growth at 10 µM [12] [%]	growth at 10 µM [13] [%]	growth at 10 µM [14] [%]	growth at 10 µM [15] [%]	growth at 10 µM [17] [%]	growth at 10 µM [18] [%]	growth at 10 µM [20] [%]	inhibition at 10 µM [22] [%]	growth at 10 µM [24] [%]	growth at 10 µM [25] [%]	growth at 10 µM [26] [%]	other results
COc1cc(OC)cc(C(=O)Nc2cc(-c3cccnc3)nc(NCCCN3CCOCC3)n2)c1	83.2	93.9	95.4	105	90.8	92.6	103	88	79.6	86.4	104	101	94.3	53.6	84.1	104	8.88	90.9	95.5	88.6	inhibition of growth at 10 µM [9]: 20.4%; inhibition of growth at 10 µM [10]: 46.4%; inhibition of growth at 10 µM [16]: 31.7%; inhibition of growth at 10 µM [19]: 25.9%; inhibition of growth at 10 µM [21]: 27.2%; inhibition of growth at 10 µM [23]: 32.3%; growth at 10 µM [27]: 82.3%
Cc1cc(Cl)ccc1C(=O)Nc1cc(-c2cccnc2)nc(NCCCN2CCOCC2)n1	88.5	101	106	111	101	87.7	99.8	90.1	97.3	111	101	95.3	101	89.2	106	97.6	1.46	102	87.2	95	inhibition of growth at 10 µM [28]: 22.8%; inhibition of growth at 10 µM [23]: 22.4%; growth at 10 µM [27]: 98%
COCCCNc1nc(NC(=O)c2cc(OC)cc(OC)c2)cc(-c2cccnc2)n1	94.8	97.7	83.5	113	91.7	91.2	105	97.8	69.1	95.3	107	105	109	56.7	78.8	101	8.06	92.8	86.7	106	inhibition of growth at 10 µM [29]: 47.4%; inhibition of growth at 10 µM [9]: 30.9%; inhibition of growth at 10 µM [10]: 43.3%; inhibition of growth at 10 µM [16]: 27.6%; inhibition of growth at 10 µM [21]: 36.2%; inhibition of growth at 10 µM [30]: 23.5%; inhibition of growth at 10 µM [31]: 30.6%; growth at 10 µM [27]: 83.5%
COCCCNc1nc(NC(=O)c2cc(Br)cc(C(F)(F)F)c2)cc(-c2cccnc2)n1	82.8	103	99.5	109	80.8	82	96	83.8	75.8	89.1	96.5	98.6	96.4	60.5	80.6	100	11.3	99.9	95.8	91	inhibition of growth at 10 µM [29]: 42.1%; inhibition of growth at 10 µM [28]: 23.8%; inhibition of growth at 10 µM [9]: 24.2%; inhibition of growth at 10 µM [10]: 39.5%; inhibition of growth at 10 µM [16]: 29.5%; inhibition of growth at 10 µM [19]: 26.7%; inhibition of growth at 10 µM [21]: 35%; inhibition of growth at 10 µM [31]: 34.4%; growth at 10 µM [27]: 80.1%
COCCCNc1nc(NC(=O)c2ccc(Cl)cc2C)cc(-c2cccnc2)n1	111	91.1	108	117	96.5	79.8	108	81.1	94	111	103	104	111	95.9	107	103	0.78	102	88.5	85.7	inhibition of growth at 10 µM [29]: 33%; inhibition of growth at 10 µM [30]: 21.4%; growth at 10 µM [27]: 93.9%
O=C(Nc1cc(-c2cccnc2)nc(NCCCN2CCOCC2)n1)c1ccc(F)cc1Cl	93.5	102	94.5	106	88.3	102	102	87.4	93.2	92.1	102	108	99.5	77	91.3	112	3.57	88.2	97.1	95.4	inhibition of growth at 10 µM [10]: 23%; growth at 10 µM [27]: 98.4%
O=C(Nc1cc(-c2cccnc2)nc(NCCCN2CCOCC2)n1)c1cc(Br)cc(C(F)(F)F)c1	52.8	52.8	56.6	80	42.8	67.9	77.4	38.6	32.7	67.2	-72.1	-49.8	1.11	42	81.3	82.5	57.2	58.2	65.4	-27.1	growth at 10 µM [32]: 29%; growth at 0.01 µM [33]: 96%; growth at 100 µM [34]: -71%; growth at 1 µM [35]: 101%; GI50 ([36]; read-out: GI50): 2.6 µM; CC50 ([36]; read-out: LC50 (the source's name)): 42.9 µM; TGI ([36]; read-out: TGI): 9.11 µM; GI50 ([36]; read-out: pGI50 (converted)): 2.57 µM; CC50 ([36]; read-out: pLC50 (the source's name) (converted)): 42.7 µM; TGI ([36]; read-out: pTGI (converted)): 9.12 µM; growth at 1 µM [37]: 92%; growth at 0.1 µM [38]: 93%; growth at 10 µM [27]: 45.1%; growth at 100 µM [39]: -89%

From ChEMBL document CHEMBL3774345, “Synthesis of new diarylamides with pyrimidinyl pyridine scaffold and evaluation of their anti-proliferative effect on cancer cell lines” (Bioorg Med Chem Lett, 2016)
